From US20240287079A1, “6-AMINOPYRAZOLOPYRIMIDINE COMPOUND AND PHARMACEUTICAL USE THEREOF” (Japan Tobacco Inc., priority 2021, published 2024)
pIC50: −log10 of the molar value.

Biological target: NLRP3 inflammasome (Homo sapiens (Human), UniProt Q96P20)
Assay: Evaluation of NLRP3 inflammasome inhibitory activity (inhibition of IL-1β production in LPS/Nigericin-stimulated THP1-Null cells)
Type: cell-based
Details: IL-1β production in THP1-Null cells; for pIC50: PMA, LPS 1 μg/mL, Nigericin 7.5 μmol/L, AlphaLISA; for inhibition at 2.4 µM: test compound 2.4 μM
Outline: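 THP1-Null cells primed with 1 μg/mL LPS, then treated with test compound; supernatant IL-1β quantified by AlphaLISA. Inhibition calculated with blank wells as 100% and control wells as 0%.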

NLRP3 inflammasome, sequence (Q96P20 whole entry): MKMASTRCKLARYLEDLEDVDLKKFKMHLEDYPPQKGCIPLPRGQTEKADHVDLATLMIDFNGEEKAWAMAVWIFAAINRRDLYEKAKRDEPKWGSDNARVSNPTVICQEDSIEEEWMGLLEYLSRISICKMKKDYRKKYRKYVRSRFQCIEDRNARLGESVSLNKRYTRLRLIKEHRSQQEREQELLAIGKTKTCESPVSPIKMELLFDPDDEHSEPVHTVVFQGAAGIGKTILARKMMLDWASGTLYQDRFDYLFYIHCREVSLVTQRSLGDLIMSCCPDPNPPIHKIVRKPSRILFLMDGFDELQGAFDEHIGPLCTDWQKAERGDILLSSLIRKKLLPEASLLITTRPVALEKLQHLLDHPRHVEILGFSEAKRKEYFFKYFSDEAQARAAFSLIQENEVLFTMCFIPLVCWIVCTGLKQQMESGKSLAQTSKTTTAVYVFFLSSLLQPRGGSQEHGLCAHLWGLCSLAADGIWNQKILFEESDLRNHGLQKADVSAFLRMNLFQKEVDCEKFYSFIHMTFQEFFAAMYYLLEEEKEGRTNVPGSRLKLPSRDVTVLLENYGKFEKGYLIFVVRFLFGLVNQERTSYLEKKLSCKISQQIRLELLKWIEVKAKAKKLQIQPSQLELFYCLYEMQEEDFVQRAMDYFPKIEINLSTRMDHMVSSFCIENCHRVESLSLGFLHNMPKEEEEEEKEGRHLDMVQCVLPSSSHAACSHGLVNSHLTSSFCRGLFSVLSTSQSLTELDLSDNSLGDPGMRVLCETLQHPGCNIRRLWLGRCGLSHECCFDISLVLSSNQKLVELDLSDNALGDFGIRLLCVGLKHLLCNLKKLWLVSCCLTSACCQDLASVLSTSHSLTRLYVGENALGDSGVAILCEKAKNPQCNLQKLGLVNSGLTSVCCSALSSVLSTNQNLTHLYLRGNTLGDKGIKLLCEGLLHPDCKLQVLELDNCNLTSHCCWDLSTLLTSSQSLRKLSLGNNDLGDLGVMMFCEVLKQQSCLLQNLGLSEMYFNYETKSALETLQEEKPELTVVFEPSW

SMILES | pIC50 | other results
Cc1cc(Br)cc(C)c1-n1cc2c(=O)n(C)c(N3CC4CC(C3)O4)nc2n1 [Example 310] | 6.35 | –
Cn1c(N2CC3CC(C2)O3)nc2nn(-c3ccc(Br)cc3C(F)(F)F)cc2c1=O [Example 311] | 6.49 | –
Cc1cc(C2CC2)cc(C)c1-n1cc2c(=O)n(C)c(N3CC4CC(C3)O4)nc2n1 [Example 312] | 6.60 | –
Cn1c(N2CC3CC(C2)O3)nc2nn(-c3ccc(C4CC4)cc3C(F)(F)F)cc2c1=O [Example 313] | 6.62 | –
COC(c1cc(Br)ccc1-n1cc2c(=O)[nH]c(N3C[C@H]4C[C@@H]3CO4)nc2n1)C1CC1 (some centres unmarked) [Example 314] | 5.96 | –
COC(c1cc(C2CC2)ccc1-n1cc2c(=O)[nH]c(N3C[C@H]4C[C@@H]3CO4)nc2n1)C1CC1 (some centres unmarked) [Example 315] | 6.17 | –
CO[C@@H]1CCN(c2nc3nn(-c4c(C)cc(Br)cc4C)cc3c(=O)[nH]2)C1 [Example 316] | 8.19 | –
CO[C@@H]1CCN(c2nc3nn(-c4c(C)cc(C5CC5)cc4C)cc3c(=O)[nH]2)C1 [Example 317] | 8.28 | –
CO[C@H]1CCN(c2nc3nn(-c4c(C)cc(Br)cc4C)cc3c(=O)[nH]2)C1 [Example 318] | 7.49 | –
CO[C@H]1CCN(c2nc3nn(-c4c(C)cc(C5CC5)cc4C)cc3c(=O)[nH]2)C1 [Example 319] | 7.62 | –
O=c1[nH]c(N2CCOCC2)nc2nn(-c3ccc(Cl)cc3CC3CC3)cc12 [Example 320] | 7.35 | –
O=c1[nH]c(N2CCOCC2)nc2nn(-c3ccc(C4CC4)cc3CC3CC3)cc12 [Example 321] | 7.54 | –
CC(C)Cc1ccccc1-n1cc2c(=O)[nH]c(N3CCOCC3)nc2n1 [Example 322] | 6.29 | –
O=c1[nH]c(N2CCOCC2)nc2nn(-c3ccc(OC(F)F)cc3C(F)(F)F)cc12 [Example 325] | 7.51 | –
Cc1cc(C2CC2)cc(C)c1-n1cc2c(=O)[nH]c(N3CCCOCC3)nc2n1 [Example 326] | 8.12 | –
Cc1cc(N2CCC2)cc(C)c1-n1cc2c(=O)[nH]c(N3CCOCC3)nc2n1 [Example 327] | 7.10 | –
Cc1cc(C2CC2)cc(C)c1-n1cc2c(=O)[nH]c(N3CCC3)nc2n1 [Example 328] | 8.24 | –
Cc1cc(C(F)F)cc(C)c1-n1cc2c(=O)[nH]c(N3CCOCC3)nc2n1 [Example 329] | 7.35 | –
Cc1cc(C(F)F)cc(C)c1-n1cc2c(=O)[nH]c(N3C[C@H]4C[C@@H]3CO4)nc2n1 [Example 330] | 7.10 | –
Cc1cc(Br)cc(C)c1-n1cc2c(OC(F)F)nc(N3CCOCC3)nc2n1 [Example 332] | – | inhibition at 2.4 µM: 33%
Cc1cc(C2CC2)cc(C)c1-n1cc2c(=O)[nH]c(N3CCCCO3)nc2n1 [Example 333] | 7.31 | –
CONc1nc2nn(-c3c(C)cc(Br)cc3C)cc2c(=O)[nH]1 [Example 336] | 7.55 | –
COCCN(C)c1nc2nn(-c3c(C)cc(Br)cc3C)cc2c(=O)[nH]1 [Example 337] | 7.33 | –
Cc1cc(Br)cc(C)c1-n1cc2c(=O)[nH]c(N3CCCCCO3)nc2n1 [Example 338] | 7.60 | –

SMILES | pIC50 | other results
Cc1cc(Br)cc(C)c1-n1cc2c(=O)[nH]c(N3CCOCCO3)nc2n1 [Example 339] | 7.43 | –
Cc1cc(Br)cc(C)c1-n1cc2c(=O)[nH]c(N3CCc4cccnc43)nc2n1 [Example 340] | 6.33 | –
Cc1ccc(C(F)(F)F)c(-n2cc3c(=O)[nH]c(N4CCOCC4)nc3n2)c1 [Example 341] | 6.57 | –
Cc1nn(C)c(C)c1-n1cc2c(=O)[nH]c(N3CCCC3)nc2n1 [Example 342] | – | inhibition at 2.4 µM: 45%
Cc1nn(C(C)C)c(C)c1-n1cc2c(=O)[nH]c(N3CCCC3)nc2n1 [Example 343, 2-(1-isopropyl-3,5-dimethyl-1H-pyrazol-4-yl)-6-(pyrrolidin-1-yl)-2,5-dihydro-4H-pyrazolo[3,4-d]pyrimidin-4-one] | 6.12 | –
Cc1nn(C2CCC2)c(C)c1-n1cc2c(=O)[nH]c(N3CCCC3)nc2n1 [Example 344] | 6.19 | –
COc1cc(C)c(-n2cc3c(=O)[nH]c(N4CCCC4)nc3n2)c(C)c1 [Example 345] | 7.80 | –
Cc1c(-n2cc3c(=O)[nH]c(N4CCCC4)nc3n2)c(C(F)(F)F)nn1C(C)C [Example 346] | 7.09 | –
CONc1nc2nn(-c3c(C)cc(C4CC4)cc3C)cc2c(=O)[nH]1 [Example 348] | 7.48 | –
Cc1cc(C2CC2)cc(C)c1-n1cc2c(=O)[nH]c(N3CCOCCO3)nc2n1 [Example 349, 2-(4-cyclopropyl-2,6-dimethylphenyl)-6-(1,5,2-dioxazepan-2-yl)-2,5-dihydro-4H-pyrazolo[3,4-d]pyrimidin-4-one] | 7.72 | –
Cc1nn(C2CCCC2)c(C)c1-n1cc2c(=O)[nH]c(N3CCCC3)nc2n1 [Example 350] | 5.92 | –
Cc1cc(C(C)(F)F)cc(C)c1-n1cc2c(=O)[nH]c(N3CCOCCO3)nc2n1 [Example 351] | 7.13 | –
Cc1cc(OC(F)F)cc(C)c1-n1cc2c(=O)[nH]c(N3CCOCCO3)nc2n1 [Example 352] | 7.17 | –
Cc1cc(Br)cc(C)c1-n1cc2c(=O)[nH]c(N3CCOCC3=O)nc2n1 [Example 353] | 7.12 | –
Cc1cc(OC(F)F)cc(C)c1-n1cc2c(=O)[nH]c(N3CCOCC3=O)nc2n1 [Example 354] | 6.66 | –
O=c1[nH]c(N2CCOCCO2)nc2nn(-c3ccc(Br)cc3C(F)(F)F)cc12 [Example 355] | 7.37 | –
O=c1[nH]c(N2CCOCCO2)nc2nn(-c3ccc(C4CC4)cc3C(F)(F)F)cc12 [Example 356] | 7.64 | –
Cc1cc(C(F)(F)F)cc(C)c1-n1cc2c(=O)[nH]c(N3CCOCCO3)nc2n1 [Example 357] | 7.55 | –
Cc1cc(CC(F)F)cc(C)c1-n1cc2c(=O)[nH]c(N3CCOCCO3)nc2n1 [Example 358] | 6.10 | –
Cc1cc(Br)cc(C)c1-n1cc2c(=O)[nH]c(NCCO)nc2n1 [Example 359] | – | inhibition at 0.0024 µM (test compound 0.0024 μM): 69%
Cc1cc(Br)cc(C)c1-n1cc2c(=O)[nH]c(NCCOCCO)nc2n1 [Example 360] | 8.21 | –
Cc1cc(Br)cc(C)c1-n1cc2c(=O)[nH]c(N(CCO)CCO)nc2n1 [Example 361] | 7.89 | –
Cc1cc(Br)cc(C)c1-n1cc2c(=O)[nH]c(N3C=COCC3)nc2n1 [Example 362] | 8.59 | –
